Measured values as given in US6268391A, “Benzylidene-1,3-dihydro-indol-2-one derivatives a receptor tyrosine kinase inhibitors, particularly of Raf kinases” (Glaxo Wellcome Inc., priority 1997, dated 2001).

The molecules below were run against T1, Human cRaf1 (Homo sapiens, UniProt P04049) (assay: Raf kinase assay (cRaf1 assay / Raf/MEK cascade assay)). Conditions: Table 3; read-out: Raf Kinase activity.
T1 construct: poly-histidine (C); made in house
T1 sequence (P04049 whole entry): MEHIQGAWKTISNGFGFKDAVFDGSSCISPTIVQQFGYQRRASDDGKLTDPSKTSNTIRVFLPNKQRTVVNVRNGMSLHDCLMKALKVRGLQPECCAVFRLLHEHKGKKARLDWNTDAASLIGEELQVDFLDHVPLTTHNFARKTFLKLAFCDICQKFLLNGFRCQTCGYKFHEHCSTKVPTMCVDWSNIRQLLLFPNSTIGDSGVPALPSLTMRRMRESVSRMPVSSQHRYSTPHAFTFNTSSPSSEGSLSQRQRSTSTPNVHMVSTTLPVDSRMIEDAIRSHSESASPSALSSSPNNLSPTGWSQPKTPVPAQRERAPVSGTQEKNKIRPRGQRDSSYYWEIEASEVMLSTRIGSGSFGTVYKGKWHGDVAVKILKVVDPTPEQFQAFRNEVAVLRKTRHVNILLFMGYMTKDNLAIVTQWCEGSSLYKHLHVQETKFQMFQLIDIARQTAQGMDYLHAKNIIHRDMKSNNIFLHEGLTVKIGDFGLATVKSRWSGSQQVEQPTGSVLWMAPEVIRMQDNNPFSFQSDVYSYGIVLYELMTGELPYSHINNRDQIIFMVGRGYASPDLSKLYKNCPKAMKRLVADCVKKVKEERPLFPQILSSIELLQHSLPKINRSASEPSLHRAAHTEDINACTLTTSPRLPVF
Assay type: biochemical
Protocol: The potency of cRaf1 dependent kinase activity was measured using one of two assay formats. The first measured cRaf1 catalyzed phosphorylation of MEK1, the natural substrate for cRaf1. This assay is referred to as the cRaf1 assay. The second measured the ability of cRaf1 to phosphorylate and activate MEK1. This assay is referred to as the Raf/MEK cascade assay.
Human cRaf1 tagged with poly histidine at the carboxyterminus was expressed in a baculovirus expression system and purfied by Ni chelate affinity chromatography. Human MEK1 was expressed in E. coli as a fusion protein with Glutathione-S-transferase, and purified by glutathione sepharose affinity chromatography. […] Reactions contained cRaf1 (20 nM), MEK1 (100-500 nM), [γ-^32 P]ATP ([…]), Mg^2+ (10 mM), MOPS (50 mM, pH 7.5). Reactions were incubated at room temperature for periods of time ranging from 20-120 minutes. Inhibitors were diluted in 100% DMSO prior to addition to the assay. Reactions were terminated with an equal volume of 0.5% phosphoric acid. MEK1 phosphorylation was detected by scintillation counting following collection of protein onto phosphocellulose filters.
Human cRaf1 and MEK1 were purified as described above. A peptide substrate phosphorylated by MEK1 was used as the final phosphoryl group acceptor. […] Assay conditions were the same as those described above except for the following modifications. Reactions contained cRaf1 (1-5 nM), MEK1 (60 nM), and peptide ([…]).
For O=C1Nc2ccc(C(=O)C[n+]3ccccc3)cc2C1=Cc1cc(Br)c(O)c(Br)c1 [Example 77, 3-(3,5-Dibromo-4-hydroxy-benzylidene)-5-(2-(N-pyridinium)-acetyl)-1,3-dihydro-indol-2-one chloride], the IC50 was < 1 µM.
Molecule CC(C)(C)C(=O)OCOc1c(Br)cc(C=C2C(=O)Nc3ccc(I)cc32)cc1Br [Example 80, 2,2-Dimethyl-propionic acid,2,6-dibromo-4-(5-iodo-2-oxo-1,3-dihydro-indol-3-ylidenemethyl)-phenoxymethyl ester] has an IC50 of 10 to 100 µM.
O=C1Nc2ccc(Br)cc2C1=Cc1cc(Br)c(O)c(Br)c1 [Example 81, 5-Bromo-3-(3,5-dibromo-4-hydroxy-benzylidene)-1,3-dihydro-indol-2-one] was tested, and the IC50 was < 1 µM.
For COc1cc(C=C2C(=O)Nc3ccc(Br)cc32)cc(Cl)c1O [Example 82, 5-Bromo-3-(3-chloro-4-hydroxy-5-methoxy-benzylidene)-1,3-dihydro-indol-2-one], the IC50 was < 1 µM.
In the case of CCN(CC)CC(=O)c1ccc2c(c1)C(=Cc1cc(Br)c(O)c(Br)c1)C(=O)N2 [Example 83, 3-(3,5-Dibromo-4-hydroxy-benzylidene)-5-(2-diethylamino-acetyl)-1,3-dihydro-indol-2-one], the IC50 is reported as < 1 µM.
With O=C1Nc2c(I)cc(C(=O)CCl)cc2C1=Cc1cc(Br)c(O)c(Br)c1 [Example 86, 5-(2-Chloro-acetyl)-3-(3,5-dibromo-4-hydroxy-benzylidene)-7-iodo-1,3-dihydro-indol-2-one] the IC50 was < 1 µM.
For O=C1Nc2ccc(I)cc2C1=Cc1cc(Br)c(OC(=O)N(CCO)CCO)c(Br)c1 [Example 87, N-[bis-(2-hydroxy-ethyl)]carbamic acid, 2,6-dibromo-4-(5-iodo-2-oxo-1,3-dihydro-indol-3-ylidenemethyl) phenyl ester], the IC50 was 10 to 100 µM.
In the case of O=C1Nc2ccc(C(=O)CCl)cc2C1=Cc1cc(Cl)c(O)c(Cl)c1 [Example 88, 5-(2-Chloro-acetyl)-3-(3,5-dichloro-4-hydroxy-benzylidene)-1,3-dihydro-indol-2-one], the IC50 is reported as < 1 µM.
For CC(=O)c1ccc2c(c1)C(=Cc1cc(Br)c(O)c(Br)c1)C(=O)N2 [Example 89, 5-Acetyl-3-(3,5-dibromo-4-hydroxy-benzylidene)-1,3-dihydro-indol-2-one], the IC50 was < 1 µM.
CC(=O)c1ccc2c(c1)C(=Cc1cc(Cl)c(O)c(Cl)c1)C(=O)N2 [Example 90, 5-Acetyl-3-(3,5-dichloro-4-hydroxy-benzylidene)-1,3-dihydro-indol-2-one] was tested, and the IC50 was < 1 µM.
COc1cccc(C(=O)c2ccc3c(c2)C(=Cc2cc(Br)c(O)c(Br)c2)C(=O)N3)c1 [Example 91, 3-(3,5-Dibromo-4-hydroxy-benzylidene)-5-(3-methoxy-benzoyl)-1,3-dihydro-indol-2-one] was tested, and the IC50 was < 1 µM.
In the case of O=C1Nc2ccc(-c3ccccc3)cc2C1=Cc1cc(Br)c(O)c(Br)c1 [Example 92, 3-(3,5-Dibromo-4-hydroxy-benzylidene)-5-phenyl-1,3-dihydro-indol-2-one], the IC50 is reported as < 1 µM.
With O=C1Nc2ccc(-c3ccccc3)cc2C1=Cc1cc(Cl)c(O)c(Cl)c1 [Example 93, 3-(3,5-Dichloro-4-hydroxy-benzylidene)-5-phenyl-1,3-dihydro-indol-2-one] the IC50 was < 1 µM.
For CCNc1nc(-c2ccc3c(c2)C(=Cc2cc(Br)c(O)c(Br)c2)C(=O)N3)cs1 [Example 94, 3-(3,5-Dibromo-4-hydroxy-benzylidene)-5-(2-(ethylamino)-4H-thiazol-4-yl)-1,3-dihydro-indol-2-one], the IC50 was < 1 µM.
In the case of O=C1Nc2ccc(C(=O)c3ccc([N+](=O)[O-])cc3)cc2C1=Cc1cc(Br)c(O)c(Br)c1 [Example 95, 3-(3,5-Dibromo-4-hydroxy-benzylidene)-5-(4-nitro-benzoyl)-1,3-dihydro-indol-2-one], the IC50 is reported as < 1 µM.
In the case of O=C1Nc2ccc(C(=O)c3cccc([N+](=O)[O-])c3)cc2C1=Cc1cc(Br)c(O)c(Br)c1 [Example 96, 3-(3,5-Dibromo-4-hydroxy-benzylidene)-5-(3-nitro-benzoyl)-1,3-dihydro-indol-2-one], the IC50 is reported as < 1 µM.
With O=C1Nc2ccc(C(=NO)c3ccccc3)cc2C1=Cc1cc(Br)c(O)c(Br)c1 [Example 97, 3-(3,5-Dibromo-4-hydroxy-benzylidene)-5-((hydroxyimino)-phenyl-methyl)-1,3-dihydro-indol-2-one] the IC50 was < 1 µM.
With CCC(=O)c1ccc2c(c1)C(=Cc1cc(Cl)c(O)c(Cl)c1)C(=O)N2 [Example 98, 3-(3,5-Dichloro-4-hydroxy-benzylidene)-5-propionyl-1,3-dihydro-indol-2-one] the IC50 was < 1 µM.
For NS(=O)(=O)c1ccc2c(c1)C(=Cc1cc(Cl)c(O)c(Cl)c1)C(=O)N2 [Example 99, 3-(3,5-Dichloro-4-hydroxy-benzylidene)-2-oxo-2,3-dihydro-1H-indole-5-sulfonic acid amide], the IC50 was < 1 µM.
In the case of O=C1Nc2ccc(S(=O)(=O)N3CCCC3)cc2C1=Cc1cc(Cl)c(O)c(Cl)c1 [Example 100, 3-(3,5-Dichloro-4-hydroxy-benzylidene)-5-(pyrrolidine-1-sulfonyl)-1,3-dihydro-indol-2-one], the IC50 is reported as < 1 µM.
Work on COc1cc(C=C2C(=O)Nc3ccccc32)cc([N+](=O)[O-])c1O [Example 101, 3-(4-Hydroxy-3-methoxy-5-nitro-benzylidene)-1,3-dihydro-indol-2-one] yielded an IC50 of 1 to 10 µM.
With COc1cc(C=C2C(=O)Nc3ccccc32)cc(I)c1O [Example 102, 3-(4-Hydroxy-3-iodo-5-methoxy-benzylidene)-1,3-dihydro-indol-2-one] the IC50 was 1 to 10 µM.
CC(=O)Oc1c(Br)cc(C=C2C(=O)Nc3ccc(Cl)cc32)cc1Br [Example 103, 2,6-Dibromo-4-[(5-chloro-2-oxo-1,2-dihydro-3H-indol-3-ylidene)methyl]phenyl acetate] showed an IC50 of 10 to 100 µM.
COc1cc(C=C2C(=O)Nc3ccc(I)cc32)cc([N+](=O)[O-])c1O [Example 104, 3-(4-Hydroxy-3-methoxy-5-nitro-benzylidene)-5-iodo-1,3-dihydro-indol-2-one] was tested, and the IC50 was < 1 µM.
For O=C1Nc2ccc([N+](=O)[O-])cc2C1=Cc1cc(O)c(O)c(Cl)c1 [Example 105, 3-(3-Chloro-4,5-dihydroxy-benzylidene)-5-nitro-1,3-dihydro-indol-2-one], the IC50 was < 1 µM.
CC(C)N(C(=O)Oc1c(Br)cc(C=C2C(=O)Nc3ccc(Cl)cc32)cc1Br)C(C)C [Example 106, 2,6-Dibromo-4-[(5-chloro-2-oxo-1,2-dihydro-3H-indol-3-ylidene)methyl]phenyl N,N-diisopropylcarbamate] gave an IC50 of 10 to 100 µM.
For CN(C)CC(=O)c1ccc2c(c1)C(=Cc1cc(Br)c(O)c(Br)c1)C(=O)N2 [Example 107, 3-(3,5-Dibromo-4-hydroxy-benzylidene)-5-(2-dimethylamino-acetyl)-1,3-dihydro-indol-2-one], the IC50 was < 1 µM.
For CCN(CCO)CC(=O)c1ccc2c(c1)C(=Cc1cc(Br)c(O)c(Br)c1)C(=O)N2 [Example 108, 3-(3,5-Dibromo-4-hydroxy-benzylidene)-5-{2-[N-ethyl-N-(2-hydroxy-ethyl)-amino]-acetyl}-1,3-dihydro-indol-2-one], the IC50 was < 1 µM.
For O=C1Nc2c(F)cccc2C1=Cc1cc(Br)c(O)c(Br)c1 [Example 109, 3-(3,5-Dibromo-4-hydroxy-benzylidene)-7-fluoro-1,3-dihydro-indol-2-one], the IC50 was < 1 µM.
With CN1CCN(CC(=O)c2ccc3c(c2)C(=Cc2cc(Br)c(O)c(Br)c2)C(=O)N3)CC1 [Example 110, 3-(3,5-Dibromo-4-hydroxy-benzylidene)-5-[2-(4-methyl-piperazin-1-yl)-acetyl]-1,3-dihydro-indol-2-one] the IC50 was < 1 µM.
In the case of O=C1Nc2cc(-c3ccccc3)ccc2C1=Cc1cc(Br)c(O)c(Br)c1 [Example 112, 3-(3,5-Dibromo-4-hydroxy-benzylidene)-6-phenyl-1,3-dihydro-indol-2-one], the IC50 is reported as 1 to 10 µM.
For CC(C)Oc1ccc2c(c1)NC(=O)C2=Cc1cc(Br)c(O)c(Br)c1 [Example 113, 3-(3,5-Dibromo-4-hydroxy-benzylidene)-6-isopropoxy-1,3-dihydro-indol-2-one], the IC50 was 1 to 10 µM.
With O=C1Nc2ccc(C(=O)CCl)cc2C1=Cc1cc(I)c(O)c(I)c1 [Example 114, 5-(2-Chloro-acetyl)-3-(3,5-diiodo-4-hydroxy-benzylidene)-1,3-dihydro-indol-2-one] the IC50 was < 1 µM.
With CCN(CC)S(=O)(=O)c1ccc2c(c1)C(=Cc1cc(Cl)c(O)c(Cl)c1)C(=O)N2 [Example 115, 3-(3,5-Dichloro-4-hydroxy-benzylidene)-2-oxo-2,3-dihydro-1H-indol-5-sulfonic acid diethylamide] the IC50 was < 1 µM.
With O=C1Nc2ccc(S(=O)(=O)N3CCOCC3)cc2C1=Cc1cc(Cl)c(O)c(Cl)c1 [Example 116, 3-(3,5-Dichloro-4-hydroxy-benzylidene)-5-(morpholine-4-sulfonyl)-1,3-dihydro-indol-2-one] the IC50 was < 1 µM.
For CC(=O)N1CCc2cc3c(cc21)C(=Cc1cc(Br)c(O)c(Br)c1)C(=O)N3 [Example 118, 5-Acetyl-3-(3,5-dibromo-4-hydroxy-benzylidene)-3,5,6,7-tetrahydro-1H-pyrrolo[2,3-f]indol-2-one], the IC50 was < 1 µM.
For CCc1ccc2c(c1)C(=Cc1cc(Br)c(O)c(Br)c1)C(=O)N2 [Example 120, 3-(3,5-Dibromo-4-hydroxy-benzylidine)-5-ethyl-1,3-dihydro-indol-2-one], the IC50 was < 1 µM.
